Experimental data from patent publication US8192962B2, “Processes for detecting toxic substances” (Daikin Industries, Ltd., priority 2001, dated 2012).

Test system: Metabolism protein genes
Assay: DNA chip mRNA expression in yeast, metabolism protein genes (Table 7)
Format: cell-based, Saccharomyces cerevisiae S288C
How it was run: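 Values are treated/untreated fluorescence ratios from a whole-genome yeast DNA chip hybridized over 12 hours at 65° C with Cy3- or Cy5-labelled cDNA from poly(A) mRNA. Log-phase S288C yeast in YPD at 25° C had received a single toxic chemical for two hours, dosed to slow growth without killing.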

## Na2As [(1)]
Yeast gene YJR155W
  The level of expressed mRNA in the presence of chemical substance/The level of expressed mRNA in the absence of chemical substance: 10.6
Yeast gene YKL035W
  The level of expressed mRNA in the presence of chemical substance/The level of expressed mRNA in the absence of chemical substance: 1.0
Yeast gene YKL060C
  level of expressed mRNA in the presence/in the absence of chemical substance: 1.6
Yeast gene YKL091C
  The level of expressed mRNA in the presence of chemical substance/The level of expressed mRNA in the absence of chemical substance: 1.2
Yeast gene YKL104C
  The level of expressed mRNA in the presence of chemical substance/The level of expressed mRNA in the absence of chemical substance: 1.0
Yeast gene YKL148C
  level of expressed mRNA in the presence/in the absence of chemical substance: 0.9
Yeast gene YKL152C
  The level of expressed mRNA in the presence of chemical substance/The level of expressed mRNA in the absence of chemical substance: 1.3
Yeast gene YKL157W
  level of expressed mRNA in the presence/in the absence of chemical substance: 0.7
Yeast gene YKL213C
  The level of expressed mRNA in the presence of chemical substance/The level of expressed mRNA in the absence of chemical substance: 0.9
Yeast gene YKL215C
  The level of expressed mRNA in the presence of chemical substance/The level of expressed mRNA in the absence of chemical substance: 0.6
Yeast gene YKR034W
  level of expressed mRNA in the presence/in the absence of chemical substance: 0.9
Yeast gene YLL058W
  The level of expressed mRNA in the presence of chemical substance/The level of expressed mRNA in the absence of chemical substance: 1.0
Yeast gene YLR006C
  level of expressed mRNA in the presence/in the absence of chemical substance: 0.7
Yeast gene YLR044C
  level of expressed mRNA in the presence/in the absence of chemical substance: 0.8
Yeast gene YLR056W
  level of expressed mRNA in the presence/in the absence of chemical substance: 1.0
Yeast gene YLR058C
  level of expressed mRNA in the presence/in the absence of chemical substance: 0.9
Yeast gene YLR081W
  level of expressed mRNA in the presence/in the absence of chemical substance: 1.3
Yeast gene YLR089C
  level of expressed mRNA in the presence/in the absence of chemical substance: 0.9
Yeast gene YLR180W
  The level of expressed mRNA in the presence of chemical substance/The level of expressed mRNA in the absence of chemical substance: 1.3
Yeast gene YLR273C
  The level of expressed mRNA in the presence of chemical substance/The level of expressed mRNA in the absence of chemical substance: 1.4
Yeast gene YLR284C
  level of expressed mRNA in the presence/in the absence of chemical substance: 0.9
Yeast gene YLR299W
  The level of expressed mRNA in the presence of chemical substance/The level of expressed mRNA in the absence of chemical substance: 1.2
Yeast gene YLR300W
  The level of expressed mRNA in the presence of chemical substance/The level of expressed mRNA in the absence of chemical substance: 0.9
Yeast gene YLR304C
  level of expressed mRNA in the presence/in the absence of chemical substance: 0.7
Yeast gene YLR307W
  The level of expressed mRNA in the presence of chemical substance/The level of expressed mRNA in the absence of chemical substance: 0.9
Yeast gene YLR348C
  The level of expressed mRNA in the presence of chemical substance/The level of expressed mRNA in the absence of chemical substance: 1.1
Yeast gene YLR354C
  level of expressed mRNA in the presence/in the absence of chemical substance: 1.1
Yeast gene YLR372W
  level of expressed mRNA in the presence/in the absence of chemical substance: 0.7
Yeast gene YML022W
  level of expressed mRNA in the presence/in the absence of chemical substance: 0.9
Yeast gene YML054C
  The level of expressed mRNA in the presence of chemical substance/The level of expressed mRNA in the absence of chemical substance: 1.5
Yeast gene YML070W
  The level of expressed mRNA in the presence of chemical substance/The level of expressed mRNA in the absence of chemical substance: 0.9
Yeast gene YML100W
  The level of expressed mRNA in the presence of chemical substance/The level of expressed mRNA in the absence of chemical substance: 0.8
Yeast gene YMR008C
  The level of expressed mRNA in the presence of chemical substance/The level of expressed mRNA in the absence of chemical substance: 0.7
Yeast gene YMR011W
  level of expressed mRNA in the presence/in the absence of chemical substance: 1.3
Yeast gene YMR015C
  level of expressed mRNA in the presence/in the absence of chemical substance: 0.7
Yeast gene YMR020W
  The level of expressed mRNA in the presence of chemical substance/The level of expressed mRNA in the absence of chemical substance: 1.3
Yeast gene YMR083W
  level of expressed mRNA in the presence/in the absence of chemical substance: 1.4
Yeast gene YMR105C
  The level of expressed mRNA in the presence of chemical substance/The level of expressed mRNA in the absence of chemical substance: 1.9
Yeast gene YMR189W
  The level of expressed mRNA in the presence of chemical substance/The level of expressed mRNA in the absence of chemical substance: 0.7
Yeast gene YMR205C
  level of expressed mRNA in the presence/in the absence of chemical substance: 0.5
Yeast gene YMR261C
  level of expressed mRNA in the presence/in the absence of chemical substance: 0.7
Yeast gene YMR271C
  The level of expressed mRNA in the presence of chemical substance/The level of expressed mRNA in the absence of chemical substance: 1.6
Yeast gene YMR296C
  The level of expressed mRNA in the presence of chemical substance/The level of expressed mRNA in the absence of chemical substance: 0.6
Yeast gene YMR323W
  level of expressed mRNA in the presence/in the absence of chemical substance: 0.8
Yeast gene YNL012W
  The level of expressed mRNA in the presence of chemical substance/The level of expressed mRNA in the absence of chemical substance: 1.3
Yeast gene YNL025C
  level of expressed mRNA in the presence/in the absence of chemical substance: 0.9
Yeast gene YNL045W
  The level of expressed mRNA in the presence of chemical substance/The level of expressed mRNA in the absence of chemical substance: 0.8
Yeast gene YNL104C
  The level of expressed mRNA in the presence of chemical substance/The level of expressed mRNA in the absence of chemical substance: 1.1
Yeast gene YNL106C
  The level of expressed mRNA in the presence of chemical substance/The level of expressed mRNA in the absence of chemical substance: 1.0
Yeast gene YNL169C
  The level of expressed mRNA in the presence of chemical substance/The level of expressed mRNA in the absence of chemical substance: 0.7
Yeast gene YNL192W
  level of expressed mRNA in the presence/in the absence of chemical substance: 1.1
Yeast gene YNL231C
  The level of expressed mRNA in the presence of chemical substance/The level of expressed mRNA in the absence of chemical substance: 1.5
Yeast gene YNL322C
  The level of expressed mRNA in the presence of chemical substance/The level of expressed mRNA in the absence of chemical substance: 0.8
Yeast gene YNL331C
  The level of expressed mRNA in the presence of chemical substance/The level of expressed mRNA in the absence of chemical substance: 8.6
Yeast gene YNL332W
  The level of expressed mRNA in the presence of chemical substance/The level of expressed mRNA in the absence of chemical substance: 1.1
Yeast gene YNR019W
  The level of expressed mRNA in the presence of chemical substance/The level of expressed mRNA in the absence of chemical substance: 1.0
Yeast gene YNR033W
  The level of expressed mRNA in the presence of chemical substance/The level of expressed mRNA in the absence of chemical substance: 0.6
Yeast gene YNR059W
  The level of expressed mRNA in the presence of chemical substance/The level of expressed mRNA in the absence of chemical substance: 1.1
Yeast gene YOL058W
  The level of expressed mRNA in the presence of chemical substance/The level of expressed mRNA in the absence of chemical substance: 0.8
Yeast gene YOL086C
  level of expressed mRNA in the presence/in the absence of chemical substance: 1.1
Yeast gene YOL108C
  level of expressed mRNA in the presence/in the absence of chemical substance: 1.4
Yeast gene YOL116W
  level of expressed mRNA in the presence/in the absence of chemical substance: 1.1
Yeast gene YOL126C
  The level of expressed mRNA in the presence of chemical substance/The level of expressed mRNA in the absence of chemical substance: 1.0
Yeast gene YOL153C
  The level of expressed mRNA in the presence of chemical substance/The level of expressed mRNA in the absence of chemical substance: 1.0
Yeast gene YOL156W
  level of expressed mRNA in the presence/in the absence of chemical substance: 1.1
Yeast gene YOL165C
  The level of expressed mRNA in the presence of chemical substance/The level of expressed mRNA in the absence of chemical substance: 10.1
Yeast gene YOR002W
  level of expressed mRNA in the presence/in the absence of chemical substance: 0.8
Yeast gene YOR085W
  level of expressed mRNA in the presence/in the absence of chemical substance: 0.7
Yeast gene YOR099W
  The level of expressed mRNA in the presence of chemical substance/The level of expressed mRNA in the absence of chemical substance: 0.8
Yeast gene YOR103C
  level of expressed mRNA in the presence/in the absence of chemical substance: 1.1
Yeast gene YOR108W
  level of expressed mRNA in the presence/in the absence of chemical substance: 0.8
Yeast gene YOR128C
  level of expressed mRNA in the presence/in the absence of chemical substance: 0.9
Yeast gene YOR130C
  The level of expressed mRNA in the presence of chemical substance/The level of expressed mRNA in the absence of chemical substance: 0.8
Yeast gene YOR142W
  level of expressed mRNA in the presence/in the absence of chemical substance: 1.0
Yeast gene YOR176W
  level of expressed mRNA in the presence/in the absence of chemical substance: 0.7
Yeast gene YOR178C
  level of expressed mRNA in the presence/in the absence of chemical substance: 1.4
Yeast gene YOR251C
  level of expressed mRNA in the presence/in the absence of chemical substance: 1.1
Yeast gene YOR336W
  The level of expressed mRNA in the presence of chemical substance/The level of expressed mRNA in the absence of chemical substance: 0.7
Yeast gene YOR347C
  The level of expressed mRNA in the presence of chemical substance/The level of expressed mRNA in the absence of chemical substance: 0.9
Yeast gene YOR348C
  level of expressed mRNA in the presence/in the absence of chemical substance: 1.1
Yeast gene YPL017C
  The level of expressed mRNA in the presence of chemical substance/The level of expressed mRNA in the absence of chemical substance: 1.0
Yeast gene YPL028W
  level of expressed mRNA in the presence/in the absence of chemical substance: 0.7
Yeast gene YPL057C
  level of expressed mRNA in the presence/in the absence of chemical substance: 1.9
Yeast gene YPL135W
  level of expressed mRNA in the presence/in the absence of chemical substance: 0.9
Yeast gene YPL148C
  level of expressed mRNA in the presence/in the absence of chemical substance: 1.2
Yeast gene YPR026W
  The level of expressed mRNA in the presence of chemical substance/The level of expressed mRNA in the absence of chemical substance: 0.9
Yeast gene YPR113W
  level of expressed mRNA in the presence/in the absence of chemical substance: 1.1
Yeast gene YPR165W
  level of expressed mRNA in the presence/in the absence of chemical substance: 1.3
Yeast gene YPR167C
  The level of expressed mRNA in the presence of chemical substance/The level of expressed mRNA in the absence of chemical substance: 5.3
Yeast gene YPR183W
  level of expressed mRNA in the presence/in the absence of chemical substance: 0.9
